Laboratory results as given in patent US7348350B2, “Pyrazolyl biphenyl carboxamides and the use thereof for controlling undesirable microorganisms” (Bayer CropScience AG, priority 2000, dated 2008).

Experiment: logP by HPLC on reversed-phase column (C 18), EEC Directive 79/831 Annex V.A8
Assay type: physicochemical
Details: reversed-phase HPLC column (C 18)
Method: The logP values given in the Preparation Examples and Tables above were determined in accordance with EEC Directive 79/831 Annex V.A8 by HPLC (High Performance Liquid Chromatography) on a reversed-phase column (C 18). Temperature: 43° C.
In the acidic range, the determination was carried out at pH 2.3 using the mobile phases 0.1% aqueous phosphoric acid and acetonitrile; linear gradient from 10% acetonitrile to 90% acetonitrile (marked ^a) in the Table).
In the neutral range, the determination was carried out at pH 7.5 using the mobile phases 0.01 molar aqueous phosphate buffer solution and acetonitrile; linear gradient from 10% acetonitrile to 90% acetonitrile (marked ^b) in the Table).

[1] = acidic range, pH 2.3, 0.1% aqueous phosphoric acid and acetonitrile, 43° C. (marked a)

SMILES | chromatographic logP [1] | chromatographic logP (neutral range, pH 7.5, 0.01 molar aqueous phosphate buffer and acetonitrile, 43° C. (marked b))
Cc1nn(C)c(F)c1C(=O)Nc1ccccc1-c1ccc(/C=N/OCc2ccccn2)cc1 [Example 17] | 1.89 | 
Cc1nn(C)c(F)c1C(=O)Nc1ccccc1-c1ccc(/C=N/OCc2ccccc2)cc1 [Example 13] | 4.02 | 
Cc1nn(C)c(F)c1C(=O)Nc1c(F)cc(F)cc1-c1ccc(/C=N/OCc2cccnc2)cc1 [Example 18] | 1.69 | 
CCCCO/N=C\c1ccc(-c2ccccc2NC(=O)c2c(C)nn(C)c2F)cc1 [Example 55] | 4.33 | 
Cc1nn(C)c(F)c1C(=O)Nc1c(F)cc(F)cc1-c1ccc(/C=N/OCc2ccncc2)cc1 [Example 19] | 1.6 | 
Cc1nn(C)c(F)c1C(=O)Nc1ccccc1-c1ccc(/C=N/OCc2cccnc2)cc1 [Example 12] | 1.75 | 
Cc1nn(C)c(F)c1C(=O)Nc1ccccc1-c1ccc(/C=N\O)cc1 [Example 53] | 2.24 | 
CO/N=C/c1ccc(-c2ccc(OC)cc2NC(=O)c2c(C)nn(C)c2F)cc1 [Example 32] | 3.1 | 
Cc1nn(C)c(F)c1C(=O)Nc1c(F)cc(F)cc1-c1ccc(/C=N/OCc2ccccn2)cc1 [Example 15] | 1.81 | 
CO/N=C\c1cc(-c2ccccc2NC(=O)c2c(C)nn(C)c2F)ccc1/C=N/OC [Example 48] | 3.25 | 
Cc1nn(C)c(F)c1C(=O)Nc1c(F)cc(F)cc1-c1ccc(/C=N/OCc2ccccc2)cc1 [Example 14] |  | 3.68
CO/N=C/c1cccc(-c2ccc(Cl)cc2NC(=O)c2c(C)nn(C)c2F)c1 [Example 41] | 3.89 | 
Cc1nn(C)c(F)c1C(=O)Nc1ccccc1-c1ccc(/C=N/OCCCl)cc1 [Example 25] | 3.38 | 
CO/N=C/c1ccc(-c2ccccc2NC(=O)c2c(C)nn(C)c2F)cc1OC [Example 27] | 3.15 | 
CCO/N=C/c1ccc(-c2ccccc2NC(=O)c2c(C)nn(C)c2F)cc1OC [Example 38] | 3.58 | 
CCC(C)O/N=C(/C)c1ccc(-c2ccccc2NC(=O)c2c(C)nn(C)c2F)cc1 (stereo not shown) [Example 51] | 4.67 | 
Cc1nn(C)c(F)c1C(=O)Nc1ccccc1-c1ccc(/C=N/OCc2ccncc2)cc1 [Example 16] | 1.72 | 
CO/N=C/c1ccc(-c2ccccc2NC(=O)c2c(C)nn(C)c2F)c(Cl)c1 [Example 10] | 3.26 | 

Continued, values first:

chromatographic logP [1] | chromatographic logP (neutral range, pH 7.5, 0.01 molar aqueous phosphate buffer and acetonitrile, 43° C. (marked b)) | SMILES
3.11 |  | CO/N=C/c1ccc(-c2cc(Cl)cc(F)c2NC(=O)c2c(C)nn(C)c2F)cc1 [Example 35]
3.67 |  | CO/N=C/c1ccc(-c2cc(Cl)ccc2NC(=O)c2c(C)nn(C)c2F)cc1 [Example 28]
4.09 |  | CO/N=C/c1cccc(-c2ccc(C(F)(F)F)cc2NC(=O)c2c(C)nn(C)c2F)c1 [Example 42]
3.48 |  | CO/N=C/c1ccc(-c2cc(F)c(F)cc2NC(=O)c2c(C)nn(C)c2F)cc1 [Example 36]
4.63 |  | CO/N=C/c1ccc(-c2cc(C(F)(F)F)cc(Cl)c2NC(=O)c2c(C)nn(C)c2F)cc1 [Example 40]
4.06 |  | CO/N=C/c1cccc(-c2cc(OC(F)(F)F)ccc2NC(=O)c2c(C)nn(C)c2F)c1 [Example 43]
3.34 |  | CO/N=C/c1ccc(-c2ccc(C)cc2NC(=O)c2c(C)nn(C)c2F)cc1 [Example 31]
3.74 |  | CO/N=C/c1ccc(-c2cc(C)c(F)cc2NC(=O)c2c(C)nn(C)c2F)cc1 [Example 34]
3.79 |  | CO/N=C/c1ccc(-c2ccc(Cl)cc2NC(=O)c2c(C)nn(C)c2F)cc1 [Example 33]
4.63 |  | CO/N=C/c1cccc(-c2cc(C(F)(F)F)cc(Cl)c2NC(=O)c2c(C)nn(C)c2F)c1 [Example 44]
